Measured values taken from patent publication US7572600B2, “Enzymatic activities in chemokine-mediated inflammation” (Chemocentryx, Inc., priority 2004, dated 2009).
Where no end group is shown, it is not given here.

T1: CCR1 (Homo sapiens, UniProt P32246)
T1 sequence (P32246 1-355): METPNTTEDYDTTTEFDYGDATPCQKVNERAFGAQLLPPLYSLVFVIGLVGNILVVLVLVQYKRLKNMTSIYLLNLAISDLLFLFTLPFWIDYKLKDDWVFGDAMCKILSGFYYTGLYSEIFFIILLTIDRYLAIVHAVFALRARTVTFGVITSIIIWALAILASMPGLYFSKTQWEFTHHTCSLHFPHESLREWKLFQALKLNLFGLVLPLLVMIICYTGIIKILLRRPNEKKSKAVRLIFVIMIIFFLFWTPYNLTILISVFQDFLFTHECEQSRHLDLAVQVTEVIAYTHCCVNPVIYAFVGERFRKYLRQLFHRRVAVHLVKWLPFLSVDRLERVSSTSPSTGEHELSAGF

T2: FPRL1 (Homo sapiens, UniProt P25090)
T2 sequence (P25090 1-351): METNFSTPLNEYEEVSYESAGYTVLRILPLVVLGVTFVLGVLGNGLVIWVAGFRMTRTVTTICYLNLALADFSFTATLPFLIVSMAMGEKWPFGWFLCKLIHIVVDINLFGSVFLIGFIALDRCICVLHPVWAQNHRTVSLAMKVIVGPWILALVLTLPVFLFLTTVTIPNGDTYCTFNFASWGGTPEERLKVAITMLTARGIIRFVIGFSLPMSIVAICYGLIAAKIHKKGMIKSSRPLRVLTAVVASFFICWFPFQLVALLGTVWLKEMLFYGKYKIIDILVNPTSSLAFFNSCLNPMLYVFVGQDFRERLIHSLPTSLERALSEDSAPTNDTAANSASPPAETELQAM


Legend:
[1] = system: murine bone marrow neutrophils; assay: Calcium responses and chemotaxis in murine bone marrow neutrophils; type: cell-based, mouse; details: murine bone marrow neutrophils (not shown)
human neutrophils = assay: Chemotaxis of human neutrophils; type: cell-based
Procedure: (§1) Chemotaxis assay. L1.2-CCR1 transfectants, THP-1 cells, human monocytes and human neutrophils were collected by centrifugation and resuspended in HBSS containing 0.1% BSA. Chemotaxis assays were performed in 96-well ChemoTx® microplates (Neuroprobe, Rockville, Md.) as follows. Chemokines were added to the lower wells (final volume 29 μL), and 20 μL of cell suspension (5×10^6 cells/mL) was added to the polycarbonate filter (3 μm pore size for neutrophils, 5 μm for other 3 cell types). After incubation at 37° C. in the presence of 5% CO2 for 1 hr (neutrophils), 90 min (monocytes) or 2 h (THP-1 and L1.2-CCR1), cells were removed from the upper surface of the filter by scraping. Cells that migrated into the lower chamber were quantified by using the CyQuant cell proliferation assay kit (Molecular Probes, Eugene, Oreg.) and analyzed with a Tecan (Durham, N.C.) fluorimeter (excitation at 480 nm, emission at 530 nm). Data were analyzed and plotted in arbitrary units of fluorescence using Prism (GraphPad Software, San Diego, Calif.).
(§2) Chemotaxis assays. L1.2-CCR1 and L1.2-FPRL1 transfectants, monocytes and neutrophils were collected by centrifugation and resuspended in HBSS with 0.1% BSA. The assays were performed in 96-well ChemoTx® microplates (Neuroprobe, Rockville, Md.). Chemokines were diluted in HBSS with 0.1% BSA and added to the lower wells (final volume 29 μL), then 20 μL of cell suspension (5×10^6 cells/mL for monocytes; 2.5×10^6 cells/mL for neutrophils) were added to the polycarbonate filters (5 μm pore size for monocytes and FPRL1 transfectants; 3 μm pore size for neutrophils). After incubation for 90 min (37° C., 100% humidity, 5% CO2), the filters were removed and the cells that migrated into the lower chamber were quantified by using the CyQuant cell proliferation assay kit (Molecular Probes, Oreg.).

human monocytes = assay: Chemotaxis of human monocytes; type: cell-based; details: undigested
Procedure: as §1, §2

CCR1 = molecular target: T1, CCR1; assay: Competition binding with 125I-MIP-1α on human monocytes; set-up: endogenous in cells; host or cells: human CD14+ monocytes from buffy coats
Procedure: Binding assay. Competition binding studies were conducted using monocytes, L1.2-CCR1 or L1.2-FPRL1 cells. Cells were incubated for 3 hr at 4° C. with ^125I-MIP-1α (final concentration ˜0.05 nM) or ^125I-WKYMVm (final concentration ˜0.01 nM) in buffer (25 mM HEPES, 140 mM NaCl, 1 mM CaCl2, 5 mM MgCl2 and 0.2% BSA, adjusted to pH 7.1) in the presence of increasing amounts of unlabeled chemokine. Reactions were aspirated onto PEI-treated GF/B glass filters using a cell harvester (Packard). Filters were washed twice (25 mM HEPES, 500 mM NaCl, 1 mM CaCl2, 5 mM MgCl2, adjusted to pH 7.1). Scintillant (MicroScint-10; 35 μl) was added to the filters and counted in a Packard Topcount scintillation counter. Data were analyzed and plotted using Prism (GraphPad Software, San Diego, Calif.).

FPRL1 = molecular target: T2, FPRL1; assay: Receptor signaling (calcium mobilization) in L1.2-FPRL1 cells; type: cell-based; set-up: expressed in transfected cells; details: for calcium mobilization in the FPRL1 transfectant: L1.2 cells stably expressing human FPRL1, undigested
Procedure: Receptor signaling assay. For individual measurements, cells were loaded for 45 min at room temperature with 2 μM indo-1/AM (Invitrogen, Carlsbad Calif.) in culture medium, then washed with 10 ml PBS and resuspended at 10^6 cells/ml in HBSS containing 0.1% BSA. Cytosolic calcium levels were determined using a Photon Technology International fluorimeter (excitation at 350 nm, ratio of dual emission at 400 and 490 nm). For measuring calcium dose responses, cells were analyzed with a Fluorometric Imaging Plate Reader 384 (FLIPR^384) (Molecular Devices, Sunnyvale, Calif.). Cells were loaded for 1 hr at 37° C. with 5 μM fluo-4 in HBSS with 0.1% BSA, then washed, transferred to black-wall 96-well plates, and subsequently excited at 505 nm with emission recorded at 530 nm with a standard protocol provided by the manufacture. Cells were stimulated with agonists 20 s after the monitoring of fluorescence began. Data were analyzed and plotted in arbitrary units of fluorescence using Prism. To ensure that responses were specific to FPRL1, we utilized a selective small-molecule antagonist of human FPRL1, generated by ChemoCentryx, which was optimized from a high throughput compound library screening approach.
Since FPRL1 has been reported to interact with low affinity and/or potency with a spectrum of potential pathogenic ligands of viral, bacterial and endogenous origin, we performed comparative functional analyses to determine the precise functional domain for the SHAAGtide (FIG. 14). SHAAGtides containing N-terminal and C-terminal truncations and extensions were synthesized, and potencies for receptor signaling in L1.2-FPRL1 cells were tested. […] After removal of the N-terminal amino acid (Met) from SHAAGtide, its potency is reduced approximately 10 fold. Removal of the first two N-terminal amino acids (Met-Leu) totally abolished SHAAGtide's activity on FPRL1. Conversely, removal of the C-terminal three amino residues (AAG) from SHAAGtide had no effect on its activity on FPRL1. Removal of the C-terminal six residues (LSHAAG) reduced the peptide's potency only 3-fold. Many other purported naturally-occurring FPRL1 ligands, including serum amyloid A (SAA), beta-amyloid protein 42, lipoxin A4 and the bacterial tripeptide fMLP were tested.

| inhibition of 125I-MIP-1α binding (CCR1) | calcium mobilization in the FPRL1 transfectant (FPRL1) | Designation and FPRL1 Activity (FPRL1; SHAAGtide and truncated/other variants) | Molecule | calcium responses and chemotaxis [1] | chemotaxis (human neutrophils) | chemotaxis (human monocytes) |
| --- | --- | --- | --- | --- | --- | --- |
| did not inhibit | fully effective | sequence; high | MLWRRKIGPQMTLSHAAG [SHAAGtide] | able to induce calcium responses and chemotaxis | vigorous chemotaxis | vigorous chemotaxis |
| moderate competitors | fully effective |  | CCL23β Δ24: truncated form of CCL23β lacking the 24-residue N-terminal domain, beginning with the SHAAGtide insertion (protein, listed as Homo sapiens) MLWRRKIGPQMTLSHAAGFHATSADCCISYTPRSIPCSLLESYFETNSECSKPGVIFLTKKGRRFCANPSDKQVQVCMRMLKLDTRIKTRKN | able to induce calcium responses and chemotaxis | vigorous chemotaxis | vigorous chemotaxis |
